Literature values, collected in US20210023029A1, “EDASALONEXENT DOSING REGIMEN FOR TREATING MUSCULAR DYSTROPHY” (Catabasis Pharmaceuticals, Inc., priority 2017, published 2021).

Test system: mdx mice
Details: long-term studies on mdx mice; cited from earlier work

In the case of `CC/C=C\C/C=C\C/C=C\C/C=C\C/C=C\CCCC(=O)NCCNC(=O)c1ccccc1O` [CAT-1041], the “muscle function, skeletal muscle weight and muscle fibrosis” value is listed as “preserves muscle function, increases skeletal muscle weight, and reduces muscle fibrosis”.
